Experimental data published in patent US8592475B2, “Inhibitors of Akt activity” (GlaxoSmithKline LLC, priority 2008, dated 2013).

These molecules were tested against T1, full length AKT1 (Homo sapiens, UniProt P31749) (assay: AKT enzyme assay (substrate phosphorylation, SPA)). Details: in at least one experimental run; pIC50 = -log(IC50), IC50 in molar units; 10 nM activated AKT enzyme, 4 uM ATP; read-out: pIC50 against full length AKT1 (converted).
T1 construct: His tag (from vector pFastBacHTb) (N); made in house; host or cells: baculovirus; Sf9 / T. ni insect cells
T1 sequence (P31749 whole entry): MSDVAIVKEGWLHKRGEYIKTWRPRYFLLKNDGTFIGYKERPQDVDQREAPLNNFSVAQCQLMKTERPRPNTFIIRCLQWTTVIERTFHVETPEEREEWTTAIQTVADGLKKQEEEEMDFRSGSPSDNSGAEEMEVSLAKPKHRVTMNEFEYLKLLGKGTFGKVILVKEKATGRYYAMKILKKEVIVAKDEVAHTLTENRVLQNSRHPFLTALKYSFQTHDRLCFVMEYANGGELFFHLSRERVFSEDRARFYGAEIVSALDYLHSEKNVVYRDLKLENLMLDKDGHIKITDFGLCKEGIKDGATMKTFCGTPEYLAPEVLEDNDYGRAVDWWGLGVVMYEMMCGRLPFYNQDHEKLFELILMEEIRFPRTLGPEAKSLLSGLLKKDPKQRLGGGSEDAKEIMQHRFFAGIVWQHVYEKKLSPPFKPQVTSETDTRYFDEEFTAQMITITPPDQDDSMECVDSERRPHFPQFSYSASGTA
Type: biochemical
Description: Cloning of Full-length Human (FL) AKT1:
Full-length human AKT1 gene was amplified by PCR from a plasmid containing myristylated-AKT1-ER (gift from Robert T. Abraham, Duke University under MTA, described in Klippel et al. in Molecular and Cellular Biology 1998 Volume 18 p. 5699) using the 5′ primer: SEQ.ID NO: 2, 5′ […] 3′ and the 3′ primer: SEQ.ID NO: 3, […] 3′. The 5′ primer included a BamHI site and the 3′ primer included an XhoI site for cloning purposes. The resultant PCR product was subcloned in pcDNA3 as a BamHI/XhoI fragment. A mutation in the sequence (TGC) coding for a Cysteine^25 was converted to the wild-type AKT1 sequence (CGC) coding for an Arginine^25 by site-directed mutagenesis using the QuikChange® Site Directed Mutagenesis Kit (Stratagene). […] For expression/purification purposes, AKT1 was isolated as a BamHI/XhoI fragment and cloned into the BamHI/XhoI sites of pFastbacHTb (Invitrogen).
Expression of FL Human AKT1:
Expression was done using the BAC-to-BAC Baculovirus Expression System from Invitrogen (catalog #10359-016). Briefly 1) the cDNA was transferred from the FastBac vector into bacmid DNA, 2) the bacmid DNA was isolated and used to transfect Sf9 insect cells, 3) the virus was produced in Sf9 cells, 4) T. ni cells were infected with this virus and sent for purification.
Purification of FL Human AKT1:
For the purification of full-length AKT1, 130 g sf9 cells (batch #41646WO2) were resuspended in lysis buffer (buffer A, 1 L, pH 7.5) containing 25 mM HEPES, 100 mM NaCl, and 20 mM imidazole. The cell lysis was carried out by Avestin (2 passes at 15K-20K psi). Cell debris was removed by centrifuging at 16K rpm for 1 hour and the supernatant was batch bound to 10 ml Nickel Sepharose HP beads at 4 C for over night. The beads were then transferred to column and the bound material was eluted with buffer B (25 mM HEPES, 100 mM NaCl, 300 mM imidazole, pH 7.5). AKT eluting fractions were pooled and diluted 3 fold using buffer C (25 mM HEPES, 5 mM DTT; pH 7.5). The sample was filtered and chromatographed over a 10 mL Q-HP column pre-equilibrated with buffer C at 2 mL/min.
The Q-HP column was washed with 3 column volume (CV) of buffer C, then step eluted with 5 CV 10% D, 5 CV 20% D, 5 CV 30% D, 5 CV 50% D and 5 CV of 100% D; where buffer D is 25 mM HEPES, 1000 mM NaCl, 5 mM DTT; pH 7.5. 5 mL fractions collected. AKT containing fractions were pooled and concentrated to 5 ml. The protein was next loaded to a 120 ml Superdex 75 sizing column that was pre-equilibrated with 25 mM HEPES, 200 mM NaCl, 5 mM DTT; pH 7.5. 2.5 mL fractions were collected.
AKT 1 eluting fractions were pooled, aliquoted (1 ml) and stored at −80 C. Mass spec and SDS-PAGE analysis were used to confirm purity and identity of the purified full-length AKT1.
Compounds of the present invention are tested for AKT 1, 2, and 3 protein serine kinase inhibitory activity in substrate phosphorylation assays. This assay examines the ability of small molecule organic compounds to inhibit the serine phosphorylation of a peptide substrate. The substrate phosphorylation assays use the catalytic domains of AKT 1, 2, or 3. AKT 1, 2 and 3 are also commercially available from Upstate USA, Inc. The method measures the ability of the isolated enzyme to catalyze the transfer of the gamma-phosphate from ATP onto the serine residue of a biotinylated synthetic peptide SEQ. ID NO: 5 (Biotin-ahx-ARKRERAYSFGHHA-amide). Substrate phosphorylation is detected by the following procedure: […]
`Cn1ncc(Cl)c1-c1cc(NC(=O)[C@H](CN)Cc2cccc(F)c2)sc1Cl` [Example 13, (2S)-3-amino-N-[5-chloro-4-(4-chloro-1-methyl-1H-pyrazol-5-yl)-2-thienyl]-2-[(3-fluorophenyl)methyl]propanamide] gave an IC50 of 2.51 nM. `Cn1ncc(Cl)c1-c1cc(NC(=O)[C@@H](CN)Cc2ccccc2F)sc1Cl` [Example 10, (2R)-3-amino-N-[5-chloro-4-(4-chloro-1-methyl-1H-pyrazol-5-yl)-2-thienyl]-2-[(2-fluorophenyl)methyl]propanamide] was tested, and the IC50 was 5.01 nM. `Cn1ncc(Cl)c1-c1cc(NC(=O)[C@@H](CN)Cc2ccccc2)sc1Cl` [Example 5, (2R)-3-amino-N-[5-chloro-4-(4-chloro-1-methyl-1H-pyrazol-5-yl)-2-thienyl]-2-(phenylmethyl)propanamide] gave an IC50 of 10 nM. Molecule `Cn1nccc1-c1c(Cl)sc(NC(=O)C(CN)c2ccccc2)c1Cl` (centres unmarked) [Example 1, 3-amino-N-[3,5-dichloro-4-(1-methyl-1H-pyrazol-5-yl)-2-thienyl]-2-phenylpropanamide] has an IC50 of 158 nM. `Cn1ncc(Cl)c1-c1cc(NC(=O)[C@H](CN)Cc2ccc(F)c(F)c2)sc1Cl` [Example 7, (2S)-3-amino-N-[5-chloro-4-(4-chloro-1-methyl-1H-pyrazol-5-yl)-2-thienyl]-2-[(3,4-difluorophenyl)methyl]propanamide] showed an IC50 of 1.58 nM.
